This is an account of results in US20250388572A1, “USE OF HPK1 INHIBITOR IN PREVENTION AND/OR TREATMENT OF HUMAN PATHOGEN INFECTION” (priority 2022, published 2025).

Each structure is given as a SMILES string. Like-named read-outs stand apart in the source and are kept apart here.

The nature of data set [1]: in vivo. The note with it: male, Sprague Dawley, rat. On the procedure:
Six male Sprague Dawley rats were administrated a single dose via intravenous injection (iv, n=3) and oral administration (po, n=3), respectively. Intravenous injection was performed by formulating the compounds into 0.25 mg/ml or 0.5 mg/mL solutions using 10% DMSO/30% PEG400/60% water and administering it at a volume of 2 mL/kg. Oral administration was performed by formulating the compounds into 0.6 mg/ml or 2.0 mg/mL homogeneous suspensions using 0.5% methylcellulose and administering it at a volume of 5 mL/kg.
The pharmacokinetic parameters of the compounds were calculated using the WinNolin non-compartmental model.

How the values of data set [2] were obtained:
(§1) The procedure for identifying microsomal metabolites is as follows:
(§2) The compounds (test compounds and their numbers are shown below, among which compounds A1 and B1 are prepared by referring to the relevant method disclosed in CN110396087A) were weighed and dissolved into dimethyl sulfoxide to prepare a 20 mM solution. The compound stock solution was diluted with 50% acetonitrile in water (v/v) to a concentration of 1.0 mM as a working solution. Liver microsomes (20 mg/mL) were diluted to 1.27 mg/mL with 50 mM dipotassium hydrogen phosphate buffer as a liver microsome working solution. Reduced coenzyme was weighed and dissolved in 3307 μL of phosphate buffer (50 mM) to 5.0 mM as a reduced coenzyme working solution. For T=60 minutes samples, 4 μL of test working solution (1.0 mM) was added, followed by 316 μL of liver microsome working solution (1.27 mg/mL), and finally, 80 μL of reduced coenzyme working solution was added to start the reaction. For T=0 minutes samples, 316 μL of liver microsome working solution (1.27 mg/mL) was added and then 80 μL of reduced coenzyme working solution was added to start the reaction, without test solution incubation. After incubation at 37° C. for 60 minutes, 1200 μL of stop solution was added to stop the enzyme reaction. For T=0 minute samples, 4 μL of test working solution (1.0 mM) was added. The sample plate was placed on a vortexer and vortexed at 600 rpm for 5 minutes. Then, the sample plate was centrifuged at 4000 rpm for 10 minutes. The supernatant was removed, mixed, and dried at room temperature with nitrogen. The residue dried with nitrogen was redissolved in 300 μL of 10% acetonitrile (0.1% FA) solvent and then centrifuged at 4000 rpm for 15 minutes. The supernatant was transferred to a detection plate for mass spectrometry. Mass spectrometry was performed using LC/Q-Exactive plus.
(§3) 7-Ethoxycoumarin (10 μM) was selected as a positive control compound and operated in parallel with the compounds.

How the values of data set [3] were obtained:
as §1, §2, §3
This is another data set of the same source.

A short description of data set [4]: in vivo. The note with it: male, cynomolgus monkey. As to the method: Three male Cynomolgus macaques were administrated a single dose via intravenous injection (iv, 1 mg/kg, n=3), followed by oral administration (po, 10 mg/kg, n=3) after washing out for one week. Intravenous injection was performed by formulating the compounds into 1.0 mg/mL solutions using water or 10% DMSO/30% PEG400/water and administering it at a volume of 1 mL/kg. Oral administration was performed by formulating the compounds into 2.0 mg/mL solutions or suspensions using water or 0.5% methylcellulose/1.7 meq 1N hydrochloric acid and administering it at a volume of 5 mL/kg.
The pharmacokinetic parameters of the compounds were calculated using the non-compartmental model.

The procedure of data set [5]: as §1, §2, §3
The source holds these as a separate data set.

How the values of data set [6] were obtained:
as §1, §2, §3
The source holds these as a separate data set.

The procedure of data set [7]: as §1, §2, §3
The source holds these as a separate data set.

Data set [8] in a line: Solid state stability of the free base crystalline form A (HPLC). It is filed as physicochemical. The following applies: closed placement at 60° C. for 1 day.

Regarding `[2H]C([2H])(Oc1cc(-c2cnn(C3CCN(C)CC3)c2)cnc1N)c1cccc(C#CC(C)(C)O)c1` [C], in “in vivo [1]” (iv, 0.5 mg/kg), the AUC(0-t) was determined as 74.8 ng·h/mL and the clearance worked out at 101 mL/min/kg. In the data set “in vivo [1]” (po, 3 mg/kg), this compound showed an AUC(0-t) of 42.8 ng·h/mL and a bioavailability of 9.52%.

With `CN1CCC(n2cc(-c3cnc(N)c(OCc4cccc(C#CC(C)(C)O)c4)c3)cn2)CC1` [Compound A1, reference compound], the area under the curve AUC(0-t) in the data set “in vivo [1]” (iv, 1 mg/kg) amounted to 116 ng·h/mL; in “in vivo [1]” (po, 10 mg/kg) it was 79.8 ng·h/mL; in the data set “in vivo [4]” (iv, 1 mg/kg), 881 ng·h/mL; in “in vivo [4]” (po, 10 mg/kg), 388 ng·h/mL. For the same compound, the clearance in the data set “in vivo [1]” (iv, 1 mg/kg) was found to be 129 mL/min/kg; in the data set “in vivo [4]” (iv, 1 mg/kg), 18.9 mL/min/kg. Moreover, the bioavailability in “in vivo [1]” (po, 10 mg/kg) is 6.84%; in “in vivo [4]”, 4.61%. Also, the “remaining percentage of the parent cores after 60 min” value (from here on “remaining percentage”) in data set [2] (mouse, microsomes, 1 h, 10 µM) worked out at 1.13%; in data set [3] (beagle, dog, microsomes, 1 h, 10 µM) it was 0.17%; in data set [5] (human, microsomes, 1 h, 10 µM), 43.84%; in data set [6] (rat, microsomes, 1 h, 10 µM) it was 2.44%; in data set [7] (cynomolgus macaque, microsomes, 1 h, 10 µM) it was 0.36%.

Consider `[2H]C([2H])([2H])N1CCC(n2cc(-c3cnc(N)c(OCc4cccc(C#CC(C)(C)O)c4)c3)cn2)CC1` [Compound A2 free base crystalline form A, 4-(3-(((2-amino-5-(1-(1-trideuteriomethylpiperidin-4-yl)-1H-pyrazol-4-yl)pyridin-3-yl)oxy)methyl)phenyl)-2-methylbut-3-yn-2-ol], for which the “HPLC Area (%) 60° C./1 day, peak 1” value in data set [8] (RRT 0.95, starting sample 0.42) came out at 0.41%. In addition, the “HPLC Area (%) 60° C./1 day, peak 2” value in data set [8] (RRT 1.00 (main peak), starting sample 99.26) is 99.33%. The “HPLC Area (%) 60° C./1 day, peak 3” value in data set [8] (RRT 1.05, starting sample 0.22) worked out at 0.17%. In addition, in data set [8] (RRT 1.06, starting sample 0.10), the “HPLC Area (%) 60° C./1 day, peak 4” value is reported as 0.09%.

As to `CN1CCC(c2ncc(-c3cnc(N)c(OCc4cccc(C#CC(C)(C)O)c4)c3)s2)CC1` [Compound B1, reference compound], the “remaining percentage” value in data set [2] was 1.24%; in data set [3], 0.12%; in data set [5] it was 51.82%; in data set [6], 11.21%; in data set [7] it was 9.11%.

For the compound `[2H]C([2H])([2H])N1CCC(c2ncc(-c3cnc(N)c(OCc4cccc(C#CC(C)(C)O)c4)c3)s2)CC1` [Compound B2], the “remaining percentage” value in data set [2] came to 42.8%; in data set [3], 8.9%; in data set [5], 70.4%; in data set [6], 43.9%; in data set [7] it was 23.4%.

For `[2H]C([2H])([2H])C(O)(C#Cc1cccc(COc2cc(-c3cnn(C4CCN(C)CC4)c3)cnc2N)c1)C([2H])([2H])[2H]` [D], in the data set “in vivo [1]” (iv, 0.3 mg/kg), the AUC(0-t) was found to be 28.7 ng·h/mL and the clearance turned out to be 151 mL/min/kg. In “in vivo [1]” (po, 2 mg/kg), this compound returned an AUC(0-t) of 9.94 ng·h/mL and a bioavailability of 5.2%.

One may read the AUC(0-t) as the area under the concentration-time curve up to a stated or last time point. The term clearance denotes the volume of plasma or blood freed of the substance per unit of time. As a reminder, the bioavailability is dose-corrected exposure relative to a reference, in per cent.
